The subject of series [1] is retinal ganglion cell axons. As to the kind of experiment: Protection of retinal ganglion cell axons 14 days after optic nerve transection (Table E). The series is classed as in vivo. The conditions noted are these: ± SEM. From the text:
Efficacy of representative compounds from different immunophilin ligand series in protecting retinal ganglion cell axons from degeneration following optic nerve transection is set forth in Table E.

Series [2] can be described thus: Clearance (Table E comments). The series is classed as in vitro ADME. The note with it: no method given.
A further series concerns the target FKBP12 (Homo sapiens, UniProt P62942). Nature of the series: Ki test: inhibition of peptidyl-prolyl isomerase (rotamase) activity, chymotrypsin-coupled assay. It counts as biochemical. The conditions noted are these: apparent Ki, Table II. The text has this: The inhibition of the prolyl peptidyl cis-trans isomerase activity of FKBP may be measured as an indicator of this affinity. Inhibition of the peptidyl-prolyl isomerase (rotamase) activity of the compounds used in the inventive methods and pharmaceutical compositions can be evaluated by known methods described in the literature (Harding et al., Nature, 1989, 341:758-760; Holt et al. J. Am. Chem. Soc., 115:9923-9938). […] The cis-trans isomerization of an alanine-proline bond in a model substrate, N-succinyl-[…]-nitroanilide, is monitored spectrophotometrically in a chymotrypsin-coupled assay, which releases para-nitroanilide from the trans form of the substrate. The inhibition of this reaction caused by the addition of different concentrations of inhibitor is determined, and the data is analyzed as a change in first-order rate constant as a function of inhibitor concentration to yield the apparent Ki values. […] The absorbance at 390 nm versus time is monitored for 90 seconds using a spectrophotometer and the rate constants are determined from the absorbance versus time data files.

The test system of series [3] is retinal ganglion cells and their axons. Nature of the series: Example 18: optic nerve transection, 28 day GPI-1046, sacrifice at 90 days. It counts as in vivo, Sprague Dawley rats. The note with it: 10 mg/kg/day s.c. for 28 days; 90 days after transection. The text has this:
Transection of the mammalian optic nerve results in a brief period of abortive regeneration, but the majority of axotomized neurons die and the axons from many persisting ganglion cells die back beyond the optic nerve head.

A further series has as its system aged impaired mice. As to the kind of experiment: Morris watermaze, spatial learning and memory in aged rodents. It counts as in vivo, C57BL/6N-Nia mice. The conditions noted are these: 10 mg/kg daily. From the text: The Morris watermaze is widely used for assessing spatial memory formation and retention in experimental animals. The test depends on the animal's ability to utilize spatial visual information in order to locate a submerged escape platform in a water tank. It is important that the tank itself be as devoid of specific visual features as possible—thus, it is always circular in shape, the sides are kept smooth and in uniform dull colors, and the water is rendered opaque with nontoxic watercolor pigment or powdered milk. This is to ensure that the animal navigates only by the use of more distant visual cues, or by the use of intra-maze cues specifically provided by the experimenter. The animals' path, speed, and swim time are tracked with a ceiling camera for later computerized analysis. Over the course of several successive trials, spatial learning can therefore be defined as a drop of distance swum, or time elapsed, from placement in the tank until escape onto the invisible platform. The procedure involved using three-month old (young) and 18-19 month old male C57BL/6N-Nia (aged) mice which habituated to the well known and conventional Morris watermaze during a 4 trials/day, 3-4 day visible platform training phase. […] Swim Distances (cm) were analyzed in a 7×5 ANOVA including Groups and Blocks (1-5) as factors in the analysis, treating Blocks as a repeated measure.

For series [4], the system named is retinal ganglion cells and optic nerve axons. Nature of the series: Optic nerve transection, 14 or 28 day treatment, evaluation 90 days after transection. The conditions noted are these: 90 days after ONT; for increased ON axon density: adjusted for optic nerve diameter; for ON axon Count: axonal density multiplied by ON area; for Proximal optic nerve myelin basic protein Density, % recovery: ± SEM. It counts as in vivo, Sprague Dawley rats. From the text: All eyes and optic nerves stumps were removed.

Series [5] concerns retinal ganglion cells, optic nerve axons and myelin. Nature of the series: Retinal ischemia (intraocular pressure raised above arterial pressure), evaluation 28 days later. The series is classed as in vivo, rats. The text has this: Retinal ganglion cells were retrogradely labeled in adult rats by bilateral injection of fluorogold in their lateral geniculate nuclei. Labeled ganglion cells in the normal rat retina appear as white profiles against the dark background (FIG. 1A). Complete retinal ischemia was produced by infusing normal saline solution into the retinal vitreous cavity of each eye until the intraocular pressure exceeded arterial blood pressure. 28 days after the ischemic episode extensive degeneration of retinal ganglion cell was evidenced by massive reduction in the density of fluorogold labeled cells (FIG. 1B).
Optic nerves from vehicle treated cases examined 28 days after a 1 hour retinal ischemic episode are characterized by a decreased density of optic nerve axons and the appearance of numerous degenerating myelin figures (bright white filled circles).

For series [6], the system named is retina (neovascularization, INL, GCL, ONL neurons). Nature of the series: Streptozotocin induced diabetes, retinal neovascularization and neuron loss. It counts as in vivo.
Series [7] relates to streptozotocin-induced diabetic rat. As to the kind of experiment: Streptozotocin-induced diabetic sensory neuropathy, hot plate and tail flick. It counts as in vivo, Male Wistar rats. The note with it: treated for 6 weeks at 10 mg/kg s.c., started six weeks after streptozotocin. As to the method:
The procedure involved using Male Wistar rats which were given a single injection of streptozotocin (65 mg/kg i.v.). Blood glucose levels were determined weekly for the first three weeks and on the last week of the experiment. Animals were evaluated weekly for signs of sensory neuropathy using the conventional hot plate and tail flick apparatus test procedures.

The mark [8] stands for this setting: 28 day treatment beginning 8 weeks after onset of streptozotocin diabetes.

Marks after values point to notes of the source that are not given here.

Chain of FKBP12 (P62942 whole entry, species assumed): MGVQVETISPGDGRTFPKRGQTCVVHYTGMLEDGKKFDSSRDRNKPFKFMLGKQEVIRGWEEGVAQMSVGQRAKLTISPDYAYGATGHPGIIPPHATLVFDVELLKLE

On to `O=C(SCCCc1ccccc1)[C@@H]1CCCN1C(=O)NC12CC3CC(CC(C3)C1)C2` [B], for which, in [1], the “RT97 + RGC axon density 14 days after ON transection (% ON axons rescued)” value was 100.0% ± 5.2% SEM.

Take `O=C(SCCCc1ccccc1)[C@@H]1CCCN1S(=O)(=O)Cc1ccccc1` [C]: the “RT97 + RGC axon density 14 days after ON transection (% ON axons rescued)” value in [1] is listed as 60.4% ± 3.1% SEM. This compound returned a Clearance in [2] of 31.1 µL/min.

Consider `CCC(C)CNC(=O)N1CCC[C@H]1C(=O)OCCCc1cccnc1` (stereo partly drawn) [Compound 1, 3-(3-pyridyl)-1-propyl (2S)-1-[(2-methylbutyl)carbamoyl]pyrrolidine-2-carboxylate], for which the Ki on FKBP12 was found to be 70 nM.

Regarding `CCC(C)(C)NC(=O)N1CCC[C@H]1C(=O)OCCCc1cccnc1` [Compound 2, 3-(3-Pyridyl)-1-propyl (2S)-1-[(1′,1′-dimethylpropyl)carbamoyl]pyrrolidine-2-carboxylate], the Ki at FKBP12 was determined as 742 nM.

As to `O=C(OCCCc1cccnc1)[C@@H]1CCCN1C(=O)NC1CCCCC1` [Compound 4, 3-(3-pyridyl)-1-propyl (2S)-1-[(cyclohexyl)carbamoyl]-pyrrolidine-2-carboxylate], the Ki on FKBP12 was found to be 1480 nM.

For the compound `O=C(OCCCc1cccnc1)[C@@H]1CCCN1C(=S)NC12CC3CC(CC(C3)C1)C2` [Compound 5, 3-(3-pyridyl)-1-propyl (2S)-1-[(1-adamantyl)thiocarbamoyl]-pyrrolidine-2-carboxylate], the Ki on FKBP12 was 116 nM.

`CCC(C)(C)C(=O)C(=O)N1CCCC[C@H]1C(=O)SCCC(c1ccccc1)c1ccccc1` [Compound K] had a Clearance in series [2] of 4.5 µL/min.

Consider `CCC(C)(C)C(=O)C(=O)N1CCCCC1C(=O)OC(CCc1ccccc1)CCc1ccccc1` (stereo not drawn) [E], for which, in series [2], the Clearance was determined as 41.8 µL/min.

Take `CCC(C)(C)C(=O)C(=O)N1CCC[C@H]1C(=O)SCCCc1cccnc1` [GPI 1046]: in [3], the “axons in the proximal stump of the transected nerve (RT97)” value is “preserved the axons of virtually all protected neurons” and the “ganglion cell population spared” value was 25%. Besides, the “spatial memory performance, retention testing (swim distance), aged impaired GPI-1046 vs aged impaired vehicle” value with aged impaired mice (retention testing after 3 weeks of dosing, F1.69=8.11, P=0.006) is “significantly enhanced spatial memory performance”. In the series with aged impaired mice (F1.69=3.09, P=0.08), the “retention phase swim distance, young vs aged impaired GPI-1046” value is reported as “no longer any statistically significant difference”. Further, in series [4] (14 days GPI 1046), the “% RGCs Rescued” value is 5.3%, the “% surviving RGCs with ON axons” value is reported as 33.6%, the “ON head area (% sham)” value is 76% and the “Spared RGC population” value is 20,275. For the same compound, in series [4] (14 days GPI 1046), the “increased ON axon density” value is 1.5× and the “ON axon Count” value worked out at 6820. Further, the “Distal optic nerve myelin basic protein loss” value in series [4] (14 days GPI 1046, cross sectional area multiplied by myelin density) stood at 47% loss. In series [4] (14 days GPI 1046, cross sectional area vs sham), the “Distal optic nerve shrinkage” value came to 33% shrinkage. Also, the “ON Axon density” value in [4] (14 days GPI 1046, mean ± SEM RT97 labeled axons in 200 μm × 200 μm region) is on record as 569 ± 23. Further, the “Proximal optic nerve myelin basic protein Density, % recovery” value in [4] (14 days GPI 1046, % areal coverage of cross section) was 1.6 ± 3.0 SEM % recovery. In addition, the “RGC Counts” value in series [4] (28 days GPI 1046 10 mg/kg/day sc, mean density ± SEM of Fluoro-gold labeled RGC in 400 μm × 400 μm gridfields) came to 67.9 ± 5.8. For the same compound, in series [4] (28 days GPI 1046), the “% surviving RGCs with ON axons” value is 81.4%, the “Distal optic nerve myelin preservation” value came to 99% myelin, the “ON head area (% sham)” value was 95%* and the “Spared RGC population” value is 28,096*. In series [4] (28 days GPI 1046), the “increased ON axon density” value was found to be 5.0×; the “ON axon Count” value is given as 22,861*; the “Proximal optic nerve myelin basic protein Density, % recovery” value was determined as 70 ± 6.3 SEM % recovery. Further, the “Distal optic nerve, less shrinkage” value in [4] (28 days GPI 1046, cross sectional area vs sham) amounted to 56% less shrinkage*. Further, in series [4] (first 14 days GPI 1046), the “density of myelin, distal stump” value is given as “slightly increase the density of myelin” and the “shrinkage of the distal stump” value is given as “did not protect against shrinkage”. In addition, the “protection of optic nerve axons” value in series [4] (first 14 days GPI 1046, proximal stump) came to 5.3%. In [4] (first 28 days GPI 1046), the “cross sectional shrinkage of the distal stump” value is “prevented cross sectional shrinkage”; the “fascicular staining pattern for myelin basic protein, proximal stump” value was “dramatic preservation of the fascicular staining pattern”; the myelin levels, distal stump, % of normal levels was 99%. In addition, the “RT97 + RGC axon density 14 days after ON transection (% ON axons rescued)” value in series [1] is recorded as 60.5% ± 3.9 SEM. The Clearance in [2] is 63.8 µL/min. In series [5] (10 mg/kg s.c. 1 hour prior to ischemia and 10 mg/kg/day for next four days, 28 days after ischemia), the “protection of fluorogold labeled retinal ganglion cells” value is given as “noticeable protection of a large proportion of the vulnerable ganglion cell population”. Further, the “density of degenerating myelin figures in optic nerve” value in series [5] (28 days after 1 hour retinal ischemic episode) is “dramatically decreased the density of degenerating myelin figures”. For the same compound, in series [6] (setting [8]), the “neovascularization in the PR, ONL, OPL and INL” value is recorded as “reduced neovascularization”; the “neuronal loss in the ONL” value is “did not appear to protect against neuronal loss”. In series [6] (28 day treatment beginning 8 weeks after onset, vs streptozotocin/vehicle controls), the “loss of neurons in the INL and GCL” value is “appeared to decrease the loss of neurons”. For the same compound, in series [7], the “latency, hot plate and tail flick” value was “improvement in latency”.

Consider `CCC(C)(C)C(=O)C(=O)N1CCCC[C@H]1C(=O)O` [G], for which, in [1], the “RT97 + RGC axon density 14 days after ON transection (% ON axons rescued)” value is given as 34.0% ± 4.8% SEM.

Consider `CCC(C)(C)C(=O)C(=O)N1CCCC[C@H]1C(N)=O` [H], for which the “RT97 + RGC axon density 14 days after ON transection (% ON axons rescued)” value in series [1] is listed as 30.3% ± 8.0% SEM.

With `O=C(OCCCc1cccnc1)[C@@H]1CCCN1C(=S)NC1CCCCC1` [I], the “RT97 + RGC axon density 14 days after ON transection (% ON axons rescued)” value in series [1] is 23.8% ± 5.3 SEM. In [2], the Clearance amounted to 8.0 µL/min.

Consider `CCC(C)(C)C(=O)C(=O)N1CCC[C@H]1C(=O)CCCCc1cccnc1` [J], for which, in series [1], the “RT97 + RGC axon density 14 days after ON transection (% ON axons rescued)” value was 15.8% ± 4.8% SEM. For the same compound, the Clearance in series [2] is 1.5 µL/min.

As to `CCC(C)(C)C(=O)C(=O)N1CCC[C@H]1C(=O)O` [L], the “RT97 + RGC axon density 14 days after ON transection (% ON axons rescued)” value in series [1] is given as 7.8% ± 3.0% SEM. In addition, the Clearance in [2] was determined as 5.2 µL/min.

Take `CCC(C)(C)C(=O)C(=O)N1CCC[C@H]1C(=O)SCCC(c1ccccc1)c1ccccc1` [M]: the “RT97 + RGC axon density 14 days after ON transection (% ON axons rescued)” value in [1] is listed as −6.3% ± 3.9% SEM. In [2], this compound had a Clearance of 12.5 µL/min.

`CN(C)C(=O)N1CCC[C@H]1C(=O)SCCCc1ccccc1` [N]: the Clearance in [2] turned out to be 21.9 µL/min.

For the origin of these results see patent US6395758B1, “Small molecule carbamates or ureas for vision and memory disorders” (GPI Nil Holdings, Inc., priority 1998, dated 2002).
